In ChEMBL document CHEMBL4483862, “Open-source discovery of chemical leads for next-generation chemoprotective antimalarials” (2018) one finds IC50 and IC90 data, which are given here for 39 molecules.

A value given as a limit tells only on which side of the number the result lay.

In the assay the test system is Plasmodium berghei. The assay can be described thus: Luciferase/luciferin-expressing antifolate-resistant parasites were used to infect a culture of HepG2 cells that were pre-incubated with compounds. Infected hepatocytes emit light due to the luciferase reaction. Assay results are presented as the percent inhibition of light emission compared to control. […]. Type of assay: functional. As to conditions: sporozoite; for IC90: read-out: LUCIFERASE INFECTION ASSAY - IC90.

[1] abbreviates: read-out: LUCIFERASE INFECTION ASSAY - IC50.

A word on the IC50: it is the concentration needed to halve the response being measured. For orientation: IC90 means the concentration needed for an effect of 90%. `O=C(NCCNc1ccnc2cc(Cl)ccc12)c1ccccc1F`: the IC90 was determined as 8.82 µM. Also, the IC50 under setting [1] amounted to 2.31 µM.
As to `FC(F)(F)c1ccccc1N/N=C/c1ccc(OCc2ccccc2)c(OCc2ccccc2)c1`, the IC90 is above 10 µM. Also, the 50% inhibitory concentration (IC50) (FFLUC_HILL_SLOPE 10.4, FFLUC_R_SQUARED 0.371, read-out: LUCIFERASE INFECTION ASSAY - IC50) is above 10 µM.
As for `Cc1ccc2nc(NC(=O)c3cccc(F)c3)c(C(=O)NC3CCCC3)n2c1`, the IC90 worked out at 1.08 µM. Under setting [1], the 50% inhibitory concentration (IC50) worked out at 0.886 µM.
On the same counts, the results for `O=S(=O)(Oc1cccc(C(F)(F)F)c1)c1cc(S(=O)(=O)c2ccccc2)cs1` are above 7.36 µM and above 7.36 µM.
For the molecule `c1ccc(OCCCN2CCC(c3nc4ccccc4s3)CC2)cc1`, the IC90 was above 9.36 µM. For the same molecule, the IC50 (PBLUC_HILL_SLOPE 3.81, PBLUC_R_SQUARED 0.48, read-out: LUCIFERASE INFECTION ASSAY - IC50) is 7.8 µM.
Consider `CN(CCO)C(=O)NCCC(c1ccccc1)c1ccccc1`, for which the IC90 was above 10 µM. The IC50 under setting [1] is above 10 µM.
As for `Cn1c(-c2cc3c(s2)CCC(C(C)(C)C)C3)n[nH]c1=S` (stereo not drawn), the IC90 is 7.62 µM. Besides, the IC50 (HEPG2TOX_HILL_SLOPE 1.61, HEPG2TOX_R_SQUARED 0.989, PBLUC_HILL_SLOPE 2.28, PBLUC_R_SQUARED 0.71, read-out: LUCIFERASE INFECTION ASSAY - IC50) was found to be 2.9 µM.
For `CCOC(=O)CN(c1cc(OC(C)C)c(Cl)cc1Cl)S(=O)(=O)c1ccc(Cl)cc1`, the IC90 was above 6.86 µM. Further, the IC50 (HEPG2TOX_HILL_SLOPE 6.82, HEPG2TOX_R_SQUARED 0.403, PBLUC_HILL_SLOPE 1.36, PBLUC_R_SQUARED 0.622, read-out: LUCIFERASE INFECTION ASSAY - IC50) is 3.13 µM.
For the molecule `Cc1cccc(NC(=O)c2ccc(Cl)c(S(=O)(=O)Nc3c(C)n(C)n(-c4ccccc4)c3=O)c2)n1`, the IC90 is above 10 µM. The IC50 (PBLUC_HILL_SLOPE 1.97, PBLUC_R_SQUARED 0.221, read-out: LUCIFERASE INFECTION ASSAY - IC50) worked out at 9.2 µM.
For `COc1ccc(-c2cnc3cnc(-c4cccc(NC(C)=O)c4)cn23)cc1`, the IC90 was above 9.21 µM. In addition, under “PBLUC_HILL_SLOPE 2.77, PBLUC_R_SQUARED 0.737, read-out: LUCIFERASE INFECTION ASSAY - IC50”, the IC50 was determined as 4.22 µM.
With `C#CCSc1nnc(-c2ccc(C(C)(C)C)cc2)n1-c1cccc(C(F)(F)F)c1`, the IC90 was above 7.94 µM. Further, under setting [1], the IC50 is above 7.94 µM.
On to `O=C(c1ccccc1)N1[C@@H]2CC[C@@H](C2)[C@H]1c1nc2cccc(OCc3ccccc3)c2[nH]1`, for which the IC90 was above 10 µM. Besides, the IC50 (PBLUC_HILL_SLOPE 2.24, PBLUC_R_SQUARED 0.373, read-out: LUCIFERASE INFECTION ASSAY - IC50) is above 10 µM.
As for `COc1ccc(OCc2nc(-c3ccc4c(c3)C(C)(C)CCC4(C)C)cs2)cc1`, the 90% effect concentration (IC90) is above 8.1 µM. In addition, the IC50 under setting [1] was above 8.1 µM.
Consider `CS(=O)(=O)Nc1cccc(-c2cn3c(-c4cccs4)cnc3cn2)c1`, for which the IC90 was above 8.91 µM. In addition, the IC50 (HEPG2TOX_HILL_SLOPE 4.93, HEPG2TOX_R_SQUARED 0.12, read-out: LUCIFERASE INFECTION ASSAY - IC50) is above 8.91 µM.
In the case of `NS(=O)(=O)c1cc(C(=O)OCC(=O)Nc2ccc(OC(F)F)cc2)ccc1Cl`, the IC90 is above 10 µM. Besides, the IC50 (PBLUC_HILL_SLOPE 2.5, PBLUC_R_SQUARED 0.514, read-out: LUCIFERASE INFECTION ASSAY - IC50) was 6.64 µM.
Turning to `O=C(COc1ccccc1SCc1ccc(Cl)cc1)NNC(=O)c1ccc(Cl)cc1`, the IC90 is above 7.15 µM. For the same molecule, under setting [1], the IC50 is above 7.15 µM.
For `CNC(=O)C1CN(C(=O)c2oc3ccc(OC)cc3c2C)c2ccccc2O1` (stereo not drawn), the IC90 was above 10 µM. Further, the IC50 (HEPG2TOX_HILL_SLOPE 21.4, HEPG2TOX_R_SQUARED 0.941, read-out: LUCIFERASE INFECTION ASSAY - IC50) was above 10 µM.
With `COc1ccc(-c2cc3c(cn2)nc(NCc2cccc(C)c2)n3C)cc1`, the IC90 is above 10 µM. In addition, for the setting “PBLUC_HILL_SLOPE 9.11, PBLUC_R_SQUARED 0.402, read-out: LUCIFERASE INFECTION ASSAY - IC50”, the IC50 is 9.46 µM.
Regarding `O=C1c2ccccc2C(O)(C#Cc2ccccc2)N1c1ccccc1` (stereo not drawn), the IC90 is 8.45 µM. The IC50 (HEPG2TOX_HILL_SLOPE 4.52, HEPG2TOX_R_SQUARED 0.977, PBLUC_HILL_SLOPE 3.23, PBLUC_R_SQUARED 0.385, read-out: LUCIFERASE INFECTION ASSAY - IC50) came out at 4.28 µM.
As to `Cc1cc(NC(=O)c2ccco2)sc1C(=O)Nc1nnc[nH]1`, the IC90 is above 10 µM. Besides, under setting [1], the IC50 is above 10 µM.
Turning to `Cc1nn(S(=O)(=O)c2ccc(-c3ccccn3)s2)c(C)c1Br`, the IC90 was above 8.29 µM. The IC50 under setting [1] is above 8.29 µM.
Take `C/C(=N\n1c(-c2ccc(OC(F)F)cc2)cs/c1=N\CCc1ccccc1)c1ccc2c(c1)OCO2`: the IC90 is above 10 µM. Besides, the IC50 (PBLUC_HILL_SLOPE 2.39, PBLUC_R_SQUARED 0.524, read-out: LUCIFERASE INFECTION ASSAY - IC50) came out at 9.18 µM.
Regarding `CC(NC(=O)NC(=O)c1ccccc1)C1CC2CCC1C2` (stereo not drawn), the IC90 was above 10 µM. The IC50 under setting [1] was above 10 µM.
With `O=C(Nc1ccc(N2CCN(c3ccc(C(F)(F)F)cn3)CC2)nc1)c1cccs1`, the IC90 was above 7.61 µM. Also, the IC50 (PBLUC_HILL_SLOPE 0.747, PBLUC_R_SQUARED 0.763, read-out: LUCIFERASE INFECTION ASSAY - IC50) amounted to 0.638 µM.
Consider `Cc1cc(NC(=O)C(C)Sc2ncnc3c2oc2ccccc23)no1` (stereo not drawn), for which the IC90 was above 10 µM. Also, the half-inhibitory concentration (IC50) (PBLUC_HILL_SLOPE 2.18, PBLUC_R_SQUARED 0.0347, read-out: LUCIFERASE INFECTION ASSAY - IC50) was above 10 µM.
In the case of `OC1(c2ccc(OC(F)F)cc2)CN(c2ccc(Br)cc2)C2=[N+]1c1ccccc1CC2` (stereo not drawn), the 90% effect concentration (IC90) is above 10 µM. Also, the IC50 (FFLUC_HILL_SLOPE 1.23, FFLUC_R_SQUARED 0.743, PBLUC_HILL_SLOPE 152, PBLUC_R_SQUARED 0.276, read-out: LUCIFERASE INFECTION ASSAY - IC50) came out at 9.94 µM.
With `CCN(CC)S(=O)(=O)c1ccc(N/N=C2/C=CC(=O)c3ncccc32)cc1`, the IC90 was above 10 µM. Further, the IC50 under setting [1] is above 10 µM.
For `COCCn1c(C(=O)OC)c(NC(=O)c2ccco2)c2cc(NCCc3ccccc3)cnc21`, the IC90 was above 7.14 µM. In addition, the IC50 (PBLUC_HILL_SLOPE 0.526, PBLUC_R_SQUARED 0.429, read-out: LUCIFERASE INFECTION ASSAY - IC50) was determined as 4.07 µM.
As for `O=C1C=CC(=O)N1c1ccc2c(c1)OCCO2`, the 90% effect concentration (IC90) is above 14.3 µM. The IC50 under setting [1] was above 14.3 µM.
Turning to `O=C(OCc1cn(-c2ccccc2)nc1-c1ccccc1)c1ccc(N2CCOCC2)nc1`, the IC90 was above 10 µM. In addition, the IC50 under setting [1] is above 10 µM.
For `Clc1ccc(CSC2=NNC(c3ccccn3)S2)cc1` (stereo not drawn), the IC90 turned out to be 9.43 µM. The IC50 (HEPG2TOX_HILL_SLOPE 8.57, HEPG2TOX_R_SQUARED 0.799, PBLUC_HILL_SLOPE 12, PBLUC_R_SQUARED 0.743, read-out: LUCIFERASE INFECTION ASSAY - IC50) was determined as 7.86 µM.
In the case of `COc1ccc(-c2ccc(CCC(=O)Nc3sccc3C#N)o2)cc1`, the IC90 was above 10 µM. Also, the IC50 under setting [1] came out at 7.82 µM.
Turning to `CN(C)CCCOc1ccc(-c2nnc3ccc(-c4cccc(Cl)c4)cn23)cc1`, the IC90 was above 10 µM. Further, the IC50 (HEPG2TOX_HILL_SLOPE 9.26, HEPG2TOX_R_SQUARED 0.159, PBLUC_HILL_SLOPE 2.15, PBLUC_R_SQUARED 0.0523, read-out: LUCIFERASE INFECTION ASSAY - IC50) was found to be 7.9 µM.
As to `Cc1c(C(=O)C(F)(F)F)c(-c2nn(-c3ccccc3)c(NC(=O)C(F)(F)F)c2C(=O)C(F)(F)F)c(C)n1-c1ccc(F)cc1`, the IC90 was above 10 µM. Besides, the IC50 (FFLUC_HILL_SLOPE 13.3, FFLUC_R_SQUARED 0.772, PBLUC_HILL_SLOPE 3.36, PBLUC_R_SQUARED 0.0987, read-out: LUCIFERASE INFECTION ASSAY - IC50) is 8.23 µM.
In the case of `C=CCCC(=O)Nc1ccc(Br)cn1`, the IC90 was above 12.9 µM. In addition, the IC50 (HEPG2TOX_HILL_SLOPE 2.37, HEPG2TOX_R_SQUARED 0.964, PBLUC_HILL_SLOPE 2.08, PBLUC_R_SQUARED 0.0582, read-out: LUCIFERASE INFECTION ASSAY - IC50) amounted to 5.2 µM.
For `COc1ccc(Cc2nc(Oc3ccc(C(C)=O)cc3OC)c3c4c(sc3n2)CCC4)cc1OC`, the 90% effect concentration (IC90) was above 10 µM. Also, where the note is “HEPG2TOX_HILL_SLOPE 23.6, HEPG2TOX_R_SQUARED 0.901, PBLUC_HILL_SLOPE 2.45, PBLUC_R_SQUARED 0.768, read-out: LUCIFERASE INFECTION ASSAY - IC50”, the IC50 came out at 4.61 µM.
For `CNC(=O)NC(=O)COc1ccccc1C#N`, the IC90 was above 10 µM. Moreover, the IC50 (FFLUC_HILL_SLOPE 16.2, FFLUC_R_SQUARED 0.422, read-out: LUCIFERASE INFECTION ASSAY - IC50) is above 10 µM.
For the molecule `C=CCn1c(SC(C(=O)c2c[nH]c3ccccc23)c2ccccc2)nc2sc(C)c(C)c2c1=O` (stereo not drawn), the IC90 turned out to be 3.74 µM. The IC50 (FFLUC_HILL_SLOPE 2.34, FFLUC_R_SQUARED 0.404, HEPG2TOX_HILL_SLOPE 0.632, HEPG2TOX_R_SQUARED 0.765, PBLUC_HILL_SLOPE 19.2, PBLUC_R_SQUARED 0.592, read-out: LUCIFERASE INFECTION ASSAY - IC50) amounted to 3.33 µM.
As to `COc1cc(OC)c(NC(=O)CN2CCN(Cc3csc4ccccc34)CC2)cc1Cl`, the concentration for an effect of 90% (IC90) came out at 9.45 µM. Further, the IC50 (HEPG2TOX_HILL_SLOPE 1.28, HEPG2TOX_R_SQUARED 0.885, PBLUC_HILL_SLOPE 11.3, PBLUC_R_SQUARED 0.661, read-out: LUCIFERASE INFECTION ASSAY - IC50) is 7.79 µM.
